From paper PMC8355150, “Bioactive recombinant human oncostatin M for NMR-based screening in drug discovery” (Scientific Reports, 2021)

Molecular target: T1, Oncostatin M (OSM, rhOSM) (Homo sapiens, UniProt P13725)
T1 construct: residues 1–187
T1 sequence (P13725 26-212): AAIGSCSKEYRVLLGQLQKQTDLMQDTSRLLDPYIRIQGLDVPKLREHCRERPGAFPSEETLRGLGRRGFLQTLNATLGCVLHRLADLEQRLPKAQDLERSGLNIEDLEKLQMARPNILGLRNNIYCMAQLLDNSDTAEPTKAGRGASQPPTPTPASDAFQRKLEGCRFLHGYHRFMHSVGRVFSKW
Assay: 1H, […] HSQC NMR titration (chemical shift perturbation); fluorescence quenching (Kd […])
Type: binding

SMILES: O=C(O)/C=C/c1cc(-c2ccc3c(c2)OCO3)c(-c2ccc3c(c2)OCO3)o1 [OSM-SMI-10B]
- Kd: 12.2 ± 3.9 µM
